How the values were obtained:
[1] = Body weight and relative organ weight in MDA-MB-231 xenograft mice; assay type: in vivo, NOD/ShiJic-SCID mice; conditions: up to eight weeks
Procedure: Animal study was approved by the UiTM Committee on Animal Research and Ethics (Ethic approval number: UiTM CARE 278/2019 (05/04/2019)). All animal experiments were conducted in accordance with standard ethical guidelines. Six- to eight-week-old female SPF NOD/ShiJic-SCID mice were obtained from Nomura Siam International (Bangkok, Thailand). […] To evaluate the tumorigenesis in the animal model, the highly aggressive MDA-MB-231 cell lines were injected into SCID mice to induce the breast cancer model. MDA-MB-231 cell lines (ATCC® HTB-26TM) were grown in Leibovitz's medium (L15) (HyClone, Rd. Logan, UT, USA) with 10% fetal bovine serum (FBS) (Gibco, Gaithersburg, MD, USA) and 1% penicillin-streptomycin (Beyotime Biotechnology, Haimen, Jiangsu, China) in a humidified incubator at 37 °C without CO2. Mice were subcutaneously injected with 3 × 10^6/100 μL MDA-MB-231 cells into the right flank region in the SCID mice. […] Body weight and tumor volume were measured weekly up to two months. […] Subsequently, all organs (liver, kidney, spleen, heart and lung) and tumors were excised, weighted and calculated as relative organ weight (expressed as the percentage of organ weight to body weight). […]

[2] = tested on: 84 key human breast cancer genes in MDA-MB-231 xenograft tumor; test: Human Breast Cancer RT2 Profiler PCR array on excised tumor; assay type: in vivo, mice; conditions: TAM-treated vs non-treated, p < 0.05
Procedure: (§1) Body weight and tumor volume were measured weekly up to two months. The tumor-growth-inhibition rate (I.R.) was calculated using the following formula: I.R. (%) = {[(Average tumor volume of the control − average tumor volume of the treated group)/Average tumor volume of the control] * 100%}. After two months, serum blood was collected for biochemical analysis. Subsequently, all organs (liver, kidney, spleen, heart and lung) and tumors were excised, weighted and calculated as relative organ weight (expressed as the percentage of organ weight to body weight). The tumors were snap-frozen in liquid nitrogen for gene expression analysis later.
Serum blood was subjected to biochemical analysis on calcineurin (CaN), estrogen (ES) and vascular endothelial cell growth factor (VEGF) proteins using ELISA kits (FineTest, Wuhan, China), following the manufacturer’s instructions. The Human Breast Cancer RT^2 Profiler PCR array (Rotor-Gene® Format) (PAHS-131ZR, Qiagen® GmbH, Hilden, Germany) was used to profile the expression of 84 genes associated with key human breast cancer pathways. Briefly, total RNA was isolated from pulverized tumor tissues of non-treated (negative control), high-dose M1S9-treated mice and TAM-treated (positive control) using RNeasy® Lipid Tissue Mini kit (Qiagen® GmbH, Hilden, Germany). Three biological replicates were prepared from each group. Eluted RNA was quantitated and purity-checked using UV-absorbance-based NanoDrop® (Thermo Scientific, Wilmington, NC, USA) and Agilent 2100 Bioanalyzer RNA 6000 Nano Chip (Agilent, Palo Alto, CA, USA), respectively. A total of 1000 ng of RNA sample was converted to cDNA using RT^2 First Strand Kit (Qiagen® GmbH, Hilden, Germany) according to the manufacturer’s protocol. The cDNA was then mixed with RT^2 SYBR Green ROX FAST Mastermix and RNase-free water before dispensing into the array and then subjected to Rotor-Gene® Q real time PCR cycler (Qiagen® GmbH, Hilden, Germany) for analysis. Threshold cycle (CT) of each gene was analyzed for ΔΔCT after normalization using housekeeping genes in the web-based RT^2 Profiler Data Analysis Software (https://www.qiagen.com/my/shop/genes-and-pathways/data-analysis-center-overview-page/).

estrogen (ES) = test: Serum ELISA of estrogen in xenograft mice; assay type: in vivo; conditions: TAM 30 mg/kg vs non-treated xenograft mice
[3] = tested on: MDA-MB-231 xenograft tumor; test: In vivo tumorigenicity study, MDA-MB-231 xenograft mice; parameters: species or system NOD/ShiJic-SCID mice
Procedure: Animal study was approved by the UiTM Committee on Animal Research and Ethics (Ethic approval number: UiTM CARE 278/2019 (05/04/2019)). All animal experiments were conducted in accordance with standard ethical guidelines. Six- to eight-week-old female SPF NOD/ShiJic-SCID mice were obtained from Nomura Siam International (Bangkok, Thailand). All mice were housed in the pathogen-free environment under controlled conditions (temperature 20–26 °C, humidity 40–70%, light/dark cycle 12 h/12 h) and received water and food ad libitium. To evaluate the tumorigenesis in the animal model, the highly aggressive MDA-MB-231 cell lines were injected into SCID mice to induce the breast cancer model. MDA-MB-231 cell lines (ATCC® HTB-26™) were grown in Leibovitz’s medium (L15) (HyClone, Rd. Logan, UT, USA) with 10% fetal bovine serum (FBS) (Gibco, Gaithersburg, MD, USA) and 1% penicillin-streptomycin (Beyotime Biotechnology, Haimen, Jiangsu, China) in a humidified incubator at 37 °C without CO2. Mice were subcutaneously injected with 3 × 10^6/100 μL MDA-MB-231 cells into the right flank region in the SCID mice.
as §1

[4] = tested on: vascular endothelial cell growth factor (VEGF); test: Serum ELISA of VEGF in xenograft mice; assay type: in vivo; conditions: high-dose M1S9 or TAM 30 mg/kg vs non-treated xenograft mice
Procedure: as §1
(§2) Serum blood was subjected to biochemical analysis on calcineurin (CaN), estrogen (ES) and vascular endothelial cell growth factor (VEGF) proteins using ELISA kits (FineTest, Wuhan, China), following the manufacturer’s instructions. […] Eluted RNA was quantitated and purity-checked using UV-absorbance-based NanoDrop® (Thermo Scientific, Wilmington, NC, USA) and Agilent 2100 Bioanalyzer RNA 6000 Nano Chip (Agilent, Palo Alto, CA, USA), respectively. […] Threshold cycle (CT) of each gene was analyzed for ΔΔCT after normalization using housekeeping genes in the web-based RT^2 Profiler Data Analysis Software (https://www.qiagen.com/my/shop/genes-and-pathways/data-analysis-center-overview-page/).

calcineurin (CaN) = test: Serum ELISA of calcineurin in xenograft mice; assay type: in vivo; conditions: high-dose M1S9 or TAM 30 mg/kg vs non-treated xenograft mice
Procedure: as §1, §2

[5] = Ferric reducing antioxidant power (FRAP) assay; conditions: mean ±2 standard deviation (n = 3)
Procedure: Moringa mixtures were subjected to phytochemical analysis following methods described by Harborne (1998) and Kokate (2005), which are based on visual observation of color changes or the formation of precipitates. Quantitative analysis of total flavonoid content (TFC) and total phenolic content (TPC) of moringa mixtures were determined spectrophotometrically by the aluminum calorimetric method (quercetin as the reference standard) and Folin–Ciocalteu method (gallic acid as the reference standard) with minor modifications, respectively. […] These antioxidant assays were carried out according to Yang et al. (2011) with slight modifications. Detailed steps were described previously by Abdul Hisam et al. (2018). All the experiments were conducted in triplicate.

| SMILES | body weight changes [1] | AR gene expression [2] | CTNNB1 gene expression [2] | ESR1 gene expression [2] | IL6 gene expression [2] | MYC gene expression [2] | NR3C1 gene expression [2] | THBS1 gene expression [2] | ES protein level (estrogen (ES)) | tumor volume compared to the control mice ([3]; M1S9 all three doses, TAM 30 mg/kg, up to six weeks, p < 0.05) | tumor growth inhibition (highest inhibition rate) ([3]; TAM 30 mg/kg subcutaneously, sixth week) | tumor growth inhibition ([3]; TAM 30 mg/kg subcutaneously, third week) [%] | VEGF protein level [4] | CaN protein level (calcineurin (CaN)) | FRAP [5] |
| --- | --- | --- | --- | --- | --- | --- | --- | --- | --- | --- | --- | --- | --- | --- | --- |
| CC/C(=C(\c1ccccc1)c1ccc(OCCN(C)C)cc1)c1ccccc1 [TAM, tamoxifen] | no significant difference | induced significantly | suppressed significantly | induced significantly | induced significantly | induced significantly | induced significantly | induced significantly | decreased significantly | significant reduction | up to 80.5% | 69.1 | decreased significantly | decreased significantly |  |
| O=C1O[C@H]([C@@H](O)CO)C(O)=C1O [ascorbic acid] |  |  |  |  |  |  |  |  |  |  |  |  |  |  | 172.41 ± 12.6 ^$ µg Trolox/mg |

From PMC7601446, “Significant Decreased Expressions of CaN, VEGF, SLC39A6 and SFRP1 in MDA-MB-231 Xenograft Breast Tumor Mice Treated with Moringa oleifera Leaves and Seed Residue (MOLSr) Extracts” (Nutrients, 2020)
